Assays:
BT-474 Tam1 [1] = assay: drug sensitivity score (DSS) (DSS (dimensionless)); higher = more sensitive; extreme values may be limits of the assay; settings: 4-OH-tamoxifen in medium 1 µM; 72 h
Experimental: (§1)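 FIMM FO2B library drugs were tested at 5 concentrations (10,000-fold range) for 72 h, with CellTiter-Glo viability normalised to DMSO and benzethonium chloride controls. The Drug Sensitivity Score (DSS) is computed from the fitted logistic dose-response curve (area-based; 0 = inactive). Resistant lines and the 'in 1µM tamoxifen' arms were tested in 1 µM 4-OH-tamoxifen.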

BT-474 Tam2 [2] = assay: as above; settings: 4-OH-tamoxifen in medium 1 µM; 72 h
Experimental: as §1

BT-474 [3] = assay: as above; settings: 72 h
Experimental: as §1

MCF-7 Tam1 [4] = assay: as above; settings: 4-OH-tamoxifen in medium 1 µM; 72 h
Experimental: as §1

MCF-7 [5] = assay: as above; settings: 72 h
Experimental: as §1

T-47D Tam1 [6] = assay: as above; settings: 4-OH-tamoxifen in medium 1 µM; 72 h
Experimental: as §1

T-47D Tam2 = assay: as above; settings: 4-OH-tamoxifen in medium 1 µM; 72 h
Experimental: as §1

T-47D [7] = assay: as above; settings: 72 h
Experimental: as §1

ZR-75-1 Tam1 [8] = assay: as above; settings: 4-OH-tamoxifen in medium 1 µM; 72 h
Experimental: as §1

ZR-75-1 Tam2 [9] = assay: as above; settings: 4-OH-tamoxifen in medium 1 µM; 72 h
Experimental: as §1

ZR-75-1 [10] = assay: as above; settings: 72 h
Experimental: as §1

BT-474 Tam1 [11] = assay: relative IC50 (midpoint of fitted logistic curve, plateau may be below 50% inhibition; CellTiter-Glo viability); higher = less potent; settings: 4-OH-tamoxifen in medium 1 µM; 72 h
Experimental: (§2)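 FIMM FO2B library drugs were plated at 5 concentrations spanning a 10,000-fold range in 384-well plates. Cells were incubated for 72 h at 37 °C and viability was read by CellTiter-Glo, normalised to DMSO (0% inhibition) and 100 µM benzethonium chloride (100% inhibition). IC50 values come from logistic dose-response fits (Breeze pipeline). Tamoxifen-resistant lines and the 'in 1µM tamoxifen' parental arms were tested in medium with 1 µM 4-OH-tamoxifen.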

BT-474 Tam2 [12] = assay: as above; settings: 4-OH-tamoxifen in medium 1 µM; 72 h
Experimental: as §2

BT-474 [13] = assay: as above; settings: 72 h
Experimental: as §2

MCF-7 Tam1 [14] = assay: as above; settings: 4-OH-tamoxifen in medium 1 µM; 72 h
Experimental: as §2

MCF-7 [15] = assay: as above; settings: 72 h
Experimental: as §2

T-47D [16] = assay: as above; settings: 72 h
Experimental: as §2

ZR-75-1 Tam1 [17] = assay: as above; settings: 4-OH-tamoxifen in medium 1 µM; 72 h
Experimental: as §2

ZR-75-1 Tam2 [18] = assay: as above; settings: 4-OH-tamoxifen in medium 1 µM; 72 h
Experimental: as §2

ZR-75-1 [19] = assay: as above; settings: 72 h
Experimental: as §2

T-47D Tam1 [20] = assay: as above; settings: 4-OH-tamoxifen in medium 1 µM; 72 h
Experimental: as §2

Structure (SMILES)	drug sensitivity score (BT-474 Tam1 [1])	drug sensitivity score (BT-474 Tam2 [2])	drug sensitivity score (BT-474 [3]; 4-OH-tamoxifen in medium 0 µM)	drug sensitivity score (BT-474 [3]; 4-OH-tamoxifen in medium 1 µM)	drug sensitivity score (MCF-7 Tam1 [4])	drug sensitivity score (MCF-7 [5]; 4-OH-tamoxifen in medium 0 µM)	drug sensitivity score (MCF-7 [5]; 4-OH-tamoxifen in medium 1 µM)	drug sensitivity score (T-47D Tam1 [6])	drug sensitivity score (T-47D Tam2)	drug sensitivity score (T-47D [7]; 4-OH-tamoxifen in medium 0 µM)	drug sensitivity score (T-47D [7]; 4-OH-tamoxifen in medium 1 µM)	drug sensitivity score (ZR-75-1 Tam1 [8])	drug sensitivity score (ZR-75-1 Tam2 [9])	drug sensitivity score (ZR-75-1 [10]; 4-OH-tamoxifen in medium 0 µM)	drug sensitivity score (ZR-75-1 [10]; 4-OH-tamoxifen in medium 1 µM)	relative IC50 (BT-474 Tam1 [11]) [µM]	relative IC50 (BT-474 Tam2 [12]) [µM]	relative IC50 (BT-474 [13]; 4-OH-tamoxifen in medium 0 µM) [µM]	relative IC50 (BT-474 [13]; 4-OH-tamoxifen in medium 1 µM) [µM]	relative IC50 (MCF-7 Tam1 [14]) [µM]	relative IC50 (MCF-7 [15]; 4-OH-tamoxifen in medium 0 µM) [µM]	relative IC50 (T-47D [16]; 4-OH-tamoxifen in medium 0 µM) [µM]	relative IC50 (T-47D [16]; 4-OH-tamoxifen in medium 1 µM) [µM]	relative IC50 (ZR-75-1 Tam1 [17]) [µM]	relative IC50 (ZR-75-1 Tam2 [18]) [µM]	relative IC50 (ZR-75-1 [19]; 4-OH-tamoxifen in medium 0 µM) [µM]	relative IC50 (ZR-75-1 [19]; 4-OH-tamoxifen in medium 1 µM) [µM]	relative IC50 (T-47D Tam1 [20]) [µM]	relative IC50 (MCF-7 [15]; 4-OH-tamoxifen in medium 1 µM) [µM]
CS(=O)(=O)CCNCc1ccc(-c2ccc3ncnc(Nc4ccc(OCc5cccc(F)c5)c(Cl)c4)c3c2)o1 [Lapatinib]	11.6	12.8	8.29	12.2	0	0	1.43	4	0.567	0	0	0	0	0	0	0.0894	0.0659	0.113	0.0824	> 1	> 1	> 1	> 1	> 1	> 1	> 1	> 1		
Cc1ccc(Nc2nccc(N(C)c3ccc4c(C)n(C)nc4c3)n2)cc1S(N)(=O)=O [Pazopanib]	0.0636	0	0	0	0	0	0.177	0	0.821	0.231	0	0	0.0921	0	0		> 10	> 10	> 10	> 10	> 10		> 10	> 10		> 10		> 10	
O=c1[nH]c(=O)n([C@H]2C[C@H](O)[C@@H](CO)O2)cc1F [Floxuridine]	0	0	1.78	1.44	0	0.48	0	5.88	1.26	1.05	0	0.801	4.86	6.61	0.31	> 10	> 10	2.41		> 10			> 10					1.39	> 10
COc1cc(F)c(F)c(Nc2ccc(I)cc2F)c1NS(=O)(=O)C1(C[C@H](O)CO)CC1 [Refametinib (RDEA119)]	3.68	0.629	0	6.44	3.77	3.75	3.88	4.09	1.2	1.6	0.324	0	0	0.912	0	0.571		> 10	0.7	0.389	1.41						> 10	0.335	1.08
C[C@]1(O)C[C@@H](c2nc(-c3ccc4ccc(-c5ccccc5)nc4c3)c3c(N)nccn32)C1 [Linsitinib (OSI-906)]	0	0	0	0.462	3.94	4.58	5.68	7.18	1.19	2.48	2.45	0.0832	0.681	0	1.21	> 10	> 10	> 10		1.17	1.7		1.87			> 10		1.82	1.62
O=C1c2c(O)ccc(O)c2C(=O)c2c(NCCNCCO)ccc(NCCNCCO)c21 [Mitoxantrone]	0	0	0	0	0	0	0	7.08	1.21	2.79	0	1.67	4.66	3.03	2.35	> 1	> 1	> 1	> 1	> 1	> 1		> 1					0.0368	> 1
CN(C)CCN1C(=O)c2cccc3cc(N)cc(c23)C1=O [Amonafide]	0	0	0	0	0	2.63	0.126	0	0	0.496	0	0.0369	0.594	1.49	0.169	> 10	> 10	> 10	> 10	> 10	3.26		> 10			3.51		> 10	
CO[C@@]12[C@H](COC(N)=O)C3=C(C(=O)C(C)=C(N)C3=O)N1C[C@@H]1N[C@@H]12 [Mitomycin C]	0	0	0	0	0	0.369	0.228	1.35	0.0558	0.988	0	1.75	1.28	0.734	0.75	> 10	> 10	> 10	> 10	> 10			> 10					3.57	

From the supplement of paper PMC4932681
